One assay concerns the target dipeptidyl peptidase IV (Homo sapiens, UniProt P27487). Kind of assay: biochemical. The conditions noted are these: values marked with "*" are ID50 values; read-out: IC50DPIV, values marked with "*" = ID50.
dipeptidyl peptidase IV, sequence (P27487 whole entry, species assumed): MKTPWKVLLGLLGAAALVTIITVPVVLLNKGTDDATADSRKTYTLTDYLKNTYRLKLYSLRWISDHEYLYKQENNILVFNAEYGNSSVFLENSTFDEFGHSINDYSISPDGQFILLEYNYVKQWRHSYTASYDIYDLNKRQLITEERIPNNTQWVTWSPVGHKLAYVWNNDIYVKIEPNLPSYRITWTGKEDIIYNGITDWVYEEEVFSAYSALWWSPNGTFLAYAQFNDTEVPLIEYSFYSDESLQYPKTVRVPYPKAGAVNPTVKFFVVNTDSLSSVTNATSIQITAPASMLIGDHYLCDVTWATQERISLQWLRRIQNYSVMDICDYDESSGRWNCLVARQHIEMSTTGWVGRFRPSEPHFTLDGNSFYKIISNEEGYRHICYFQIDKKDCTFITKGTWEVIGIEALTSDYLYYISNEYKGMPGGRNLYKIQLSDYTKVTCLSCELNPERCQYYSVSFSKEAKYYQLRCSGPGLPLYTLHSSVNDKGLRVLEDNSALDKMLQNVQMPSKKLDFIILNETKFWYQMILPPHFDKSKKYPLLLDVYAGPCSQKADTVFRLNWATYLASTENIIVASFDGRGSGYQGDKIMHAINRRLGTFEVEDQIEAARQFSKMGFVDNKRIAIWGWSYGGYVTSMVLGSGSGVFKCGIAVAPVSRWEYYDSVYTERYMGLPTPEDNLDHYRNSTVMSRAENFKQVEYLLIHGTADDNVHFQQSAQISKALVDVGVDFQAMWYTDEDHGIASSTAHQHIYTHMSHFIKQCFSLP
Turning to `COc1ccc(-n2c(=O)c3c4c(sc3n3c(SCc5ccc(Br)cc5)nnc23)COC(C)(C)C4)cc1` [D3.113], the IC50 was found to be 317 µM.

In the case of `O=C1c2sc3nnc(-c4ccccc4)c(=O)n3c2C(=O)N1c1ccccc1` [D3.114], the IC50 is 332 µM.

In the case of `CCOC(=O)c1c(NC(=O)CSc2nc(=O)cc(N)n2-c2cccc(C)c2)sc2c1CCC2` [D3.116], the IC50 worked out at 363 µM.

`Nc1ccc(C(=O)NNC(=O)c2ccc(N3C(=O)c4ccc(C(=O)NNC(=O)c5ccc([N+](=O)[O-])cc5)cc4C3=O)cc2)cc1` [D3.117]: the IC50 amounted to 402 µM.

Take `Nc1nc2ccc(S(=O)(=O)c3ccc4nc(N)sc4c3)cc2s1` [D3.118]: the IC50 amounted to 417 µM.

For the compound `Cc1ccc(N2C(=O)C3CC(c4ccccc4)=C4C5C=CC(C6C(=O)N(c7ccc(C)cc7C)C(=O)C56)C4C3C2=O)c(C)c1` (centres unmarked) [D3.119], the IC50 was found to be 527 µM.

As for `COc1ccc(N2C(=O)CSCC2=O)cc1OC` [D4.004], the IC50 turned out to be 3.1 µM.

For `COc1cc(OC)cc(N2C(=O)CSCC2=O)c1` [D4.005], the IC50 stood at 3.8 µM.

For `CCC(=O)Oc1cccc(N2C(=O)C3C4C=CC(C3C2=O)C2C(=O)N(c3cccc(OC(=O)CC)c3)C(=O)C42)c1` (centres unmarked) [D4.006], the IC50 was 4.2 µM.

As for `CC(=O)Nc1ccc(Nc2ccc(N3C(=O)CCCC3=O)cc2[N+](=O)[O-])cc1` [D4.079], the IC50 is 71.3 µM.

Turning to `CC1(C)NCC(c2ccccc2)CC1O` (centres unmarked) [D4.088], the IC50 was determined as 96.2 µM.

In the case of `O=C(Oc1cccc(-n2cnnn2)c1)C1CC1` [D4.089], the IC50 was 98.4 µM.

In the case of `Oc1ccc(-c2csc(Nc3ncccn3)n2)cc1O` [D4.095], the IC50 was 163 µM.

On to `CC(C)c1ccc(N2CC(C(=O)Nc3ccc(Br)cc3Br)CC2=O)cc1` (centres unmarked) [D4.096], for which the IC50 came out at 172 µM.

Take `O=C1CSCC(=O)N1c1ccc(F)cc1F` [D4.100]: the IC50 was 216 µM.

Regarding `CN(Cc1ccccc1)c1ccc(N2C(=O)CCCC2=O)cc1[N+](=O)[O-]` [D4.101], the IC50 is 231 µM.

`CCCc1c(C)nc(N)c(C#N)c1-c1ccccc1` [D4.104]: the IC50 was found to be 255 µM.

As for `CS(=O)(=O)N1CCN(c2ccc([N+](=O)[O-])c(NCc3ccc(Cl)cc3)c2)CC1` [D4.112], the IC50 came out at 361 µM.

On to `N#C/C(=C\c1ccc(-c2ccc(Cl)cc2)o1)C(=O)Nc1cccc([N+](=O)[O-])c1` [D4.114], for which the IC50 amounted to 394 µM.

For the compound `N#C/C(=C\c1ccc(N2Cc3ccccc3C2)cc1)C(=O)NCc1ccco1` [D4.118], the IC50 came out at 456 µM.

On to `O=C(c1cc(C(=O)N2CCOCC2)cc([N+](=O)[O-])c1)N1CCOCC1` [D5.009], for which the IC50 turned out to be 10.7 µM.

Staying with this assay, now noted: values without "*" = IC-50; read-out: IC50DPIV.
For `N#CC1=C(N)C(C#N)(C#N)C(c2ccccc2)C2CNCC=C12` (centres unmarked) [D4.007], the IC50 worked out at 6.9 µM.

Take `N#CC1=C(N)C(C#N)(C#N)C(c2ccccc2F)C2CNCC=C12` (centres unmarked) [D4.009]: the IC50 worked out at 7.4 µM.

Turning to `Cc1cccc(C2N(CC(C)C)CC(C(=O)c3c(C)cccc3C)N2CCCN2CCCC2=O)c1` (centres unmarked) [D4.010], the IC50 worked out at 7.5 µM.

`O=C1CSCC(=O)N1c1cc(Cl)cc(Cl)c1` [D4.011]: the IC50 was 8.5 µM.

`Nc1nonc1-n1nnc(C(=O)NN=C2c3ccccc3-c3ccccc32)c1-c1ccccc1` [D4.013]: the IC50 stood at 10.1 µM.

Turning to `CCOC(=O)c1ccc(N2C(=O)CSCC2=O)cc1` [D4.015], the IC50 worked out at 12.2 µM.

Take `O=C1C=C(c2cccc([N+](=O)[O-])c2)C(=O)N1c1ccc(Cl)cc1` [D4.016]: the IC50 came out at 12.3 µM.

As to `CCOC(=O)CN(Cc1ccccc1)c1ccc(N2C(=O)CCCC2=O)cc1[N+](=O)[O-]` [D4.017], the IC50 stood at 13.5 µM.

Take `CCCn1c(N2CCN(CC(=O)c3c(C)n(C)c4ccccc34)CC2)nc2c1c(=O)[nH]c(=O)n2C` [D4.019]: the IC50 worked out at 15.2 µM.

Consider `CCCC(=O)O/N=C1\C(=O)N(c2ccccc2)c2ccccc21` [D4.020], for which the IC50 was 15.2 µM.

As to `COC(=O)C(CC(C)C)Nc1ccc(N2C(=O)CCCC2=O)cc1[N+](=O)[O-]` (centres unmarked) [D4.021], the IC50 is 15.4 µM.

`CC(=O)Oc1cccc(N2C(=O)c3ccc(C(=O)NCc4ccc(C(=O)O)cc4)cc3C2=O)c1` [D4.023]: the IC50 worked out at 18.2 µM.

As for `COc1ccc(N2CCN(c3nc4c(c(=O)[nH]c(=O)n4C)n3Cc3ccccc3)CC2)cc1` [D4.024], the IC50 was 19.2 µM.

In the case of `Cc1cc(Nc2ccc(N3C(=O)CCCC3=O)cc2[N+](=O)[O-])no1` [D4.025], the IC50 came out at 20 µM.

With `O=C1c2ccc(Oc3ccc([N+](=O)[O-])cc3[N+](=O)[O-])cc2C(=O)N1c1ccccc1` [D4.028], the IC50 came to 20.6 µM.

Consider `NS(=O)(=O)c1ccc(N2C(=O)CCCC2=O)cc1` [D4.030], for which the IC50 was found to be 21 µM.

In the case of `N#C/C(=C\c1ccc(N2CCCCC2)c([N+](=O)[O-])c1)c1nn(CCO)c(N)c1C#N` [D4.032], the IC50 was found to be 23.6 µM.

As to `COc1ccc(/C=N/n2c(N(C(C)=O)C(C)=O)nc(-c3ccccc3)c2-c2ccccc2)cc1` [D4.034], the IC50 is 24.3 µM.

Regarding `O=C1CCCC(=O)N1c1ccc(N2CCN(Cc3ccccc3)CC2)c([N+](=O)[O-])c1` [D4.035], the IC50 worked out at 24.5 µM.

With `O=C1c2ccc(-c3nc4ccccc4c(=O)o3)cc2C(=O)N1c1ccc(Cc2ccc(N3C(=O)c4ccc(-c5nc6ccccc6c(=O)o5)cc4C3=O)cc2)cc1` [D4.037], the IC50 was found to be 27.7 µM.

Turning to `COC1CC2=C(CC1OC)CC(C)(C)NC2` (centres unmarked) [D4.039], the IC50 came to 28.8 µM.

As to `COc1ccc(Cl)cc1N1C(=O)CSCC1=O` [D4.041], the IC50 turned out to be 30.7 µM.

With `O=C1NCCCCC1Nc1ccc(N2C(=O)CCCC2=O)cc1[N+](=O)[O-]` (centres unmarked) [D4.044], the IC50 is 34.1 µM.

For the compound `CCOC(=O)c1c(C)oc2c1c1c(c3ccccc32)OCN(C2CCS(=O)(=O)C2)C1` (centres unmarked) [D4.045], the IC50 is 34.2 µM.

As for `CC1=C(C#N)C(=O)N(CCCO)C(=O)/C1=C\c1ccc(-c2cc(C)c(C)cc2[N+](=O)[O-])o1` [D4.046], the IC50 was 34.8 µM.

As for `COc1cc(N2C(=O)CSCC2=O)c(Cl)cc1Cl` [D4.047], the IC50 stood at 35.3 µM.

In the case of `CCOCCCNc1ccc(N2C(=O)CCCC2=O)cc1[N+](=O)[O-]` [D4.048], the IC50 is 36.8 µM.

For `CCOC(=O)c1c(C)nn(-c2ccc(N3C(=O)CSCC3=O)cc2)c1C` [D4.049], the IC50 was found to be 37.4 µM.

On to `O=C1NC23NC(=O)NC2(N1)c1ccccc1-c1ccccc13` (centres unmarked) [D4.053], for which the IC50 came to 43.1 µM.

For the compound `C=CCOC(=O)c1cc(-c2ccc(/C=C3/C(=O)N(CCCO)C(=O)C(C#N)=C3C)o2)ccc1Cl` [D4.054], the IC50 was 44.6 µM.

As for `CC1=C(C#N)C(=O)N(CCc2ccccc2)C(=O)/C1=C/c1ccc(-c2ccc(S(N)(=O)=O)cc2)o1` [D4.057], the IC50 came out at 48.2 µM.

Consider `CCCCOC(=O)c1cc(-c2ccc(/C=C3/C(=O)N(CC(C)O)C(=O)C(C#N)=C3C)o2)ccc1Cl` (centres unmarked) [D4.059], for which the IC50 is 49 µM.

With `O=C(Oc1csc(-c2cccnc2)n1)C1CC1` [D4.061], the IC50 stood at 52.5 µM.

For the compound `COc1ccc(CCN(C)c2ccc(N3C(=O)CCCC3=O)cc2[N+](=O)[O-])cc1OC` [D4.062], the IC50 worked out at 52.6 µM.

As to `O=C1CCCC(=O)N1c1ccc(NCCc2ccc(O)cc2)c([N+](=O)[O-])c1` [D4.064], the IC50 came to 54.9 µM.

Turning to `O=C1CCCC(=O)N1c1ccc(NCCOCCO)c([N+](=O)[O-])c1` [D4.065], the IC50 amounted to 55 µM.

As to `CCOc1ccc(/C=N/NC(=O)c2cc(-c3c(OC)ccc4ccccc34)n[nH]2)cc1` [D4.068], the IC50 was 56.2 µM.

Consider `CCOC(=O)c1cc(-c2ccc(/C=C3/C(=O)NC(=O)C(C#N)=C3C)o2)ccc1Cl` [D4.069], for which the IC50 was 56.7 µM.

`NC(=O)C1CCN(c2ccc(N3C(=O)CCCC3=O)cc2[N+](=O)[O-])CC1` [D4.070]: the IC50 amounted to 57 µM.

Turning to `COc1ccc(C2(N3CCCC3)Oc3ccccc3C(C#Cc3ccccc3)=C2C)cc1` (centres unmarked) [D4.071], the IC50 was found to be 60.7 µM.

In the case of `C/C(=C\c1ccc(C(C)C)cc1)C1NCC(c2ccc([N+](=O)[O-])cc2)O1` (centres unmarked) [D4.072], the IC50 was determined as 65 µM.

For `CC(=O)Oc1cccc(N2C(=O)C3C(C2=O)C2(C)C=CC3(C)O2)c1` (centres unmarked) [D4.073], the IC50 worked out at 65.6 µM.

As for `CCOC(=O)c1ccc(-c2ccc(/C=C3\C(=O)N(CCO)C(=O)C(C#N)=C3C)o2)cc1` [D4.074], the IC50 is 65.9 µM.

As to `O=C1C(N2CCOCC2)=C(Cl)/C(=N/S(=O)(=O)c2ccc(Cl)cc2)C(Cl)(Cl)C1(Cl)Cl` [D4.075], the IC50 was found to be 66.6 µM.

Consider `COc1ccccc1C1NCC(c2ccc([N+](=O)[O-])cc2)O1` (centres unmarked) [D4.077], for which the IC50 stood at 70.1 µM.

Regarding `CCOC(=O)N1CCN(c2ccc(N3C(=O)CCCC3=O)cc2[N+](=O)[O-])CC1` [D4.078], the IC50 was 70.4 µM.

As for `CC1=C(C#N)C(=O)N(CC(C)O)C(=O)/C1=C/c1ccc(-c2ccc(Br)cc2)o1` (centres unmarked) [D4.080], the IC50 is 73.8 µM.

Regarding `CCCOC(=O)c1cc(-c2ccc(/C=C3\C(=O)N(CCCO)C(=O)C(C#N)=C3C)o2)ccc1Cl` [D4.081], the IC50 worked out at 76.3 µM.

For `CCCOC(=O)c1cc(-c2ccc(/C=C3/C(=O)N(CC(C)O)C(=O)C(C#N)=C3C)o2)ccc1Cl` (centres unmarked) [D4.083], the IC50 turned out to be 82.2 µM.

As for `NCc1ccccc1-n1cccc1` [D4.085], the IC50 was 92.5 µM.

`O=C1CSCC(=O)N1c1ccc(F)cc1` [D4.086]: the IC50 is 94.5 µM.

Regarding `CC1=C(C#N)C(=O)N=C(O)/C1=C\c1ccc(-c2ccc(Cl)cc2Cl)o1` [D4.087], the IC50 was 95.8 µM.

Take `Cc1[nH]c2ccccc2c1C(c1cc(Cl)ccc1O)N1CCOCC1` (centres unmarked) [D5.007]: the IC50 turned out to be 12.1 µM.

Turning to `COc1ccc(N2CCN(c3nc4c(c(=O)[nH]c(=O)n4C)n3Cc3ccccc3)CC2)cc1` [D5.020], the IC50 worked out at 19.2 µM.

In the case of `CCOC(=O)C(NC(=O)c1ccc(OC)cc1)(N1CCOCC1)C(F)(F)F` (centres unmarked) [D5.021], the IC50 worked out at 29.2 µM.

As for `CCCn1c(N2CCN(CC(=O)c3c(C)n(C)c4ccccc34)CC2)nc2c1c(=O)[nH]c(=O)n2C` [D5.023], the IC50 amounted to 30.8 µM.

For `O=C1NCCCCC1Nc1ccc(N2C(=O)CCCC2=O)cc1[N+](=O)[O-]` (centres unmarked) [D5.026], the IC50 came out at 34.1 µM.

As for `Cc1ccc(C(=O)N/C(=C\c2ccco2)C(=O)N2CCOCC2)cc1C` [D5.033], the IC50 was 46.5 µM.

As for `Cn1c(=O)n(Cc2ccccc2)c(=O)c2c1nc(N1CCNCC1)n2Cc1ccccc1` [D5.034], the IC50 turned out to be 48.3 µM.

For the origin of these results see patent US20070037785A1, “Novel dipeptidyl peptidase IV inhibitors used for functionally influencing different cells and treating immunological, infammatory, neuronal, and other diseases” (priority 2003, published 2007).
